Assay results published in patent US20090253718A1, “Pharmaceutical Compounds” (Astex Therapeutics Limited, priority 2006, published 2009).

Assays:
MM1 cells = details: continuous delivery using osmotic pumps, syngeneic rats; cited from earlier work
[1] = test system: isolated rabbit urinary bladder smooth muscle; details: cited from earlier work
rat MM1 hepatoma cells = details: cited from earlier work
ROCK-II (h) = ROCK-II (h) (Homo sapiens, UniProt O75116); assay: ROCK-II (h) radiometric kinase assay; assay type: biochemical; details: read-out: IC50 anti-ROCK-II activity
Experimental: In a final reaction volume of 25 μl, ROCK-II (h) (5-10 mU) is incubated with 50 mM Tris pH 7.5, 0.1 mM EGTA, 30 μM […], 10 mM MgAcetate and [γ-^33P-ATP] (specific activity approx. 500 cpm/pmol, concentration as required). The reaction is initiated by the addition of the MgATP mix. After incubation for 40 minutes at room temperature, the reaction is stopped by the addition of 5 μl of a 3% phosphoric acid solution. 10 μl of the reaction is then spotted onto a P30 filtermat and washed three times for 5 minutes in 75 mM phosphoric acid and once in methanol prior to drying and scintillation counting.
The compound of example 29 was tested for anti-ROCK-II activity (assay as described above): […]

Chain of ROCK-II (h) (O75116 whole entry): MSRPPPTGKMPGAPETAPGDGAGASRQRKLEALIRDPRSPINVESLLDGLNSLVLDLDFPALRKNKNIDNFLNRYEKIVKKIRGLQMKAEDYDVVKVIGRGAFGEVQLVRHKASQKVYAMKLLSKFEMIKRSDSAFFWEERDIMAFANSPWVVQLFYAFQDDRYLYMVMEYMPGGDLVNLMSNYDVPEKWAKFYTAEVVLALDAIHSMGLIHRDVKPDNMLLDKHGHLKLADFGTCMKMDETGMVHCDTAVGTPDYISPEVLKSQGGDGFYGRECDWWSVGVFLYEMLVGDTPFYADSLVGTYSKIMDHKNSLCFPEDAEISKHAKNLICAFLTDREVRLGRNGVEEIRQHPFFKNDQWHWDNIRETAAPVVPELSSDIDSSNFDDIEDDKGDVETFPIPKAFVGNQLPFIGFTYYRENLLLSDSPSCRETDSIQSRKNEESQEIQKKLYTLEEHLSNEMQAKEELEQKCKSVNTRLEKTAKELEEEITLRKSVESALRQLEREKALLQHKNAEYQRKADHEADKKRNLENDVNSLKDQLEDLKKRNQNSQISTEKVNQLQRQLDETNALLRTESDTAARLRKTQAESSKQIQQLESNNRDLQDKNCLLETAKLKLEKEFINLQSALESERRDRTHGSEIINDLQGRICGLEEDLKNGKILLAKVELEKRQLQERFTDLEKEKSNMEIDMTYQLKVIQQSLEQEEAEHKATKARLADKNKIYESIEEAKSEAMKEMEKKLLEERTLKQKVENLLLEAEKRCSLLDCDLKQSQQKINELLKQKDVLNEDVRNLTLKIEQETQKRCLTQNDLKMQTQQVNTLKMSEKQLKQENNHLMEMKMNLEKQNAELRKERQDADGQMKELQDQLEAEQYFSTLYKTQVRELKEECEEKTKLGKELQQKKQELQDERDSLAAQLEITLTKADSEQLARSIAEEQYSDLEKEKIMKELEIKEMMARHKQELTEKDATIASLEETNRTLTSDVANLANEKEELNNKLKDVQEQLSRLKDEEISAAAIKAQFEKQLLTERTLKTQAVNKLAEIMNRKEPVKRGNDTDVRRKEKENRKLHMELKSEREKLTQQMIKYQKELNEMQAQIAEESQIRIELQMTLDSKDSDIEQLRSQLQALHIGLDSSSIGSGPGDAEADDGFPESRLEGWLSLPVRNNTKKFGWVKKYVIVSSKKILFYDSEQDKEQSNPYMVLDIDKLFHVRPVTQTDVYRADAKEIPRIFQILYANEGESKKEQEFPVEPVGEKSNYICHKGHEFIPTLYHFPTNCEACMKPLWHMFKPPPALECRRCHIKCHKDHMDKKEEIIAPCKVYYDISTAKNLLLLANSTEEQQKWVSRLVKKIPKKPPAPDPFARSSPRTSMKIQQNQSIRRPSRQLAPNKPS

| Compound | dissemination of MM1 cells (MM1 cells) | bethanechol-evoked contractions [1] | Rho-mediated activation of actomyosin (rat MM1 hepatoma cells) | invasive activity (rat MM1 hepatoma cells) | IC50 (ROCK-II (h)) [nM] |
| --- | --- | --- | --- | --- | --- |
| C[C@@H](N)[C@H]1CC[C@H](C(=O)Nc2ccncc2)CC1 [Example Y-27632] | considerably reduced | attenuates | blocked | blocked |  |
| NC(c1ccc(Cl)cc1)C1CCN(c2ccnc3[nH]ccc23)CC1 (centres unmarked) [Example 29, C-(4-Chlorophenyl)-C-[1-(1H-pyrrolo[2,3-b]pyridin-4-yl)piperidin-4-yl]methylamine] |  |  |  |  | < 100 |
